Source: paper PMC9747124 (Clinical and Translational Science, 2022)
Read-outs that look alike come from different tables or passages of the source.

Tests used:
[1] = Population PK model of evobrutinib; type: in vivo, human; details: for Increase of bioavailability with food compared with when fasted: population PK model covariate effect
patients with RMS [2] = type: in vivo, human
[3] = data not shown for high-fat or moderate-fat meal; internal report; cited from earlier work
patients with RMS [4] = details: cited from earlier work; for Annualized relapse rate (ARR): 75 mg b.i.d.
patients with RMS [5] = details: 75 mg q.d. while fasted; over 24 weeks, maintained through week 48; cited from earlier work
[6] = between-participant variability, final PK model

## C=CC(=O)N1CCC(CNc2ncnc(N)c2-c2ccc(Oc3ccccc3)cc2)CC1 [evobrutinib, Evobrutinib]
[1]; 75 mg b.i.d. treatment arm in the phase II study
  Patients exceeding AUC0-24,SS > 400 ng/ml h: all patients
[1]; [6]
  ω^2 ALAG, Estimate (RSE %): 0.317 (83.3)
  ω^2 CL/F, Estimate (RSE %): 0.257 (18.1)
  ω^2 D1 fasted, Estimate (RSE %): 0.784 (38.3)
  ω^2 D1 fed, Estimate (RSE %): 0.784 (38.3)
  ω^2 Q/F, Estimate (RSE %): 1.25 (18.2)
  ω^2 V2/F, Estimate (RSE %): 0.566 (32.9)
  ω^2 V3/F, Estimate (RSE %): 1.82 (15.2)
[1]; covariance, final PK model
  Cov CL/F + ALAG, Estimate (RSE %): 0.0572 (120)
  Cov Q/F + V3/F, Estimate (RSE %): 1.09 (17.3)
[1]; final PK model
  Residual variability: Additive error: 0.272 ng/mL
  Residual variability: Proportional error: 0.509
[1]; final PK model, week 48
  ALAG (lag time): 0.197 h
  K a (absorption rate constant): 0.793 h⁻¹
  V3/F (apparent volume of distribution of the peripheral compartment): 385 L
[1]; final PK model, week 48, value for healthy participants
  CL/F (apparent clearance): 269 L/h
[1]; human, in vivo
  Vd/F: 50.8 L
[1]; human, in vivo, 75 mg
  AUC(0-t): 835 ng·h/mL
  Cmax: 168 ng/mL
[1]
  Increase of bioavailability with food compared with when fasted: about 50%
[1]; listed as Evobrutinib
  Increase of bioavailability with food compared with when fasted: 49%
Patients with RMS [2]; ARR versus exposure model estimate
  exp(B1), level of ARR for high values of the AUC: 0.11
Patients with RMS [2]; highest three exposure quintiles (starting at an AUC of 356 ng/ml h)
  Mean ARR: ≤ 0.14
[3]
  Increase of bioavailability by dosing with food: about 50%
Patients with RMS [4]; 25 mg q.d.
  Clinical efficacy on any end points compared with placebo: did not show clinical efficacy
Patients with RMS [4]; 48-week double-blind period
  Annualized relapse rate (ARR): 0.11
Patients with RMS [4]; 108-week period (48-week double-blind plus 60-week open-label extension)
  Annualized relapse rate (ARR): 0.12
Patients with RMS [5]
  Total cumulative number of T1 Gd+ lesions compared with placebo: reduction
